Here are results for two compounds from patent US20180149652A1, “ELECTRICAL CELL-SUBSTRATE IMPEDANCE SENSOR (ECIS)” (priority 2018, published 2018).

In test [1] the test system is tubulin assemblies of MCF-7 cells. Put plainly: Confocal microscopy of tubulin assemblies of MCF-7 cells. Format: cell-based, human. The note with it: ABZ 2.1 nano-moles per liter, PTX 0.1 nano-moles per liter. How it is done: In addition, an un-treated control sample was prepared as reference for comparison. Then, samples were washed with PBS and permeabilized with microtubule stabilizing buffer [80 mM PIPES-KOH (pH 6.8), 5 mM EGTA, and 1 mM MgCl2 containing 0.5% Triton X-100] for 5 min at room temperature before being fixed with chilled absolute methanol for 10 min at −20° C. Thereafter, the fixed cells were washed and incubated with monoclonal mouse anti-α-tubulin antibody (Sigma Co.) for 1 hour at room temperature followed by incubation with FITC-conjugated antimouse IgG antibody (Santa Cruz Biotechnology). The stained cells were mounted with Vectashield (Vector Laboratories, Burlingame, Calif.) and observed by confocal microscopy.

The test system of the next test is MCF-7 cells. Put plainly: SiNW-ECIS impedance and capacitance response of MCF-7 cells to antitubulin drugs. Format: cell-based, human. Particulars: MCF-7 on SiNW electrodes, PTX 0.1 nano-moles per liter; for normalized capacitance change versus control sample / normalized impedance change versus control sample: 2 hours (T1) after drug incubation; for normalized capacitance change versus control sample / normalized impedance change versus control sample / change in electrical impedance with respect to control sample / norm of capacitive changes, control sample more than drug value / change of norm in impedance of treated cells, T1 vs. T2: ABZ 2.1 nano-moles per liter; for change in electrical impedance with respect to control sample / norm of capacitive changes, control sample more than drug value: 6 hours (T2) after drug incubation. Here is the method: In this example, the diagnostic response of cells membrane to extremely low dose of antitubulin drugs is investigated. Initially, MCF-7 cell lines, isolated from grade I human breast tumors, were obtained from the National Cell Bank of Iran (Pasteur Institute). Then, cells were maintained in a CO2 incubator (37° C., 5% CO2) in RPMI-1640 medium supplemented with 5% fetal bovine serum, and 1% penicillin/streptomycin. The fresh medium was replaced every other day. Then, the cultured cells were dropped on the surface of the SiNW-ECIS, designed and fabricated pursuant to teachings of the present application. Prior to each experiment, cells were trypsinized to be detached from the substrate and resuspended on the SiNW surface. To minimize the effect of trypsinization, the procedure may last for less than 4 minutes at room temperature of about 20° C. The samples were held in an incubator for about 4 hours to achieve cells attachment on the SiNWs. Thereafter, the ABZ drug with low concentrations of about 2.1 nano-moles per liter and the PTX drug with low concentrations of about 0.1 nano-moles per liter were added to individual samples. Finally, the signal recording and biological assays were investigated about 2 hours and 6 hours after the drug treatment (6 hours and 10 hours after the beginning of culturing process).
Referring to FIGS. 12A-12G, comparative normalized diagrams of impedance (designated by ΔZ% and represented by solid black lines) and capacitance changes (designated by ΔC% and represented by dashed grey lines) are illustrated for MCF-7 cells seeded on SiNW electrodes after treating by 2.1 nano-moles per liter of ABZ and 0.1 nano-moles per liter of PTX. The time interval between the drug incubation and the signal extraction are 2 hours (designated by T1) and 6 hours (designated by T2). In addition, the same diagrams are plotted for control sample prepared with no drug treatment stage.
According to the method described in the present example, the samples were maintained in an incubator so that the signal extraction was repeated 10 hours after cells dropping (6 hours after drug incubation for treated samples) to monitor the time evolution of drug induced MT polymerization/depolymerization on bioelectrical response of the membrane.

The mark [2] stands for this setting: between 2 hours (T1) and 6 hours (T2) after drug incubation.

For the compound `CCCSc1ccc2nc(NC(=O)OC)[nH]c2c1` [ABZ, Albendazole], the “spindle / microtubule appearance in confocal image” value (shortened to “spindle / microtubule appearance”) in test [1] (MCF-7, 2 hours after treatment) is “abnormally reduced numbers of spindles or monopolar (monoaster) spindles”. Moreover, the “spindle / microtubule appearance” value in test [1] (MCF-7, 6 hours after treatment) is recorded as “still the monoastered MTs are observable”. In the test with MCF-7 cells, the “normalized capacitance change versus control sample” value was 70%; the “normalized impedance change versus control sample” value turned out to be 25%; the “change in electrical impedance with respect to control sample” value was “about 90%”; the “norm of capacitive changes, control sample more than drug value” is recorded as “about 90%”. Moreover, the “change of norm in impedance of treated cells, T1 vs. T2” value in the test with MCF-7 cells (setting [2]) is “about 60%”.

On to `CC(=O)O[C@H]1C(=O)[C@@]2(C)[C@H]([C@H](OC(=O)c3ccccc3)[C@]3(O)C[C@H](OC(=O)[C@H](O)[C@@H](NC(=O)c4ccccc4)c4ccccc4)C(C)=C1C3(C)C)[C@]1(OC(C)=O)CO[C@@H]1C[C@@H]2O` [PTX, Paclitaxel], for which the “spindle / microtubule appearance” value in test [1] (MCF-7, 2 hours after treatment) was “aggregated spindles”. Further, the “spindle / microtubule appearance” value in test [1] (MCF-7, 6 hours after treatment) is “increased aggregation in MT spindles is noticeable”. For the same compound, in the test with MCF-7 cells, the “normalized capacitance change versus control sample” value was “about 60%”; the “normalized impedance change versus control sample” value is reported as “about 50%”; the “change in electrical impedance with respect to control sample” value is on record as “about 30%”; the “norm of capacitive changes, control sample more than drug value” is around 75%. Also, in the test on MCF-7 cells (setting [2]), the “change of norm in impedance of treated cells, T1 vs. T2” value is 15% and the “time dependent variation in capacitive behavior, T1 vs. T2” value is “about 85%”.
